ChEMBL document CHEMBL1201862, “PubChem BioAssay data set” (2004)
Active and inactive are the calls of the source.

Tests used:
[1] = biological target: Potassium voltage-gated channel subfamily KQT member 2 (Rattus norvegicus, UniProt O88943, W236L); test: potentiation of rat KCNQ2 current – cell-based, automated electrophysiology, mechanism study for KCNQ2 potentiator project, dose response (AID 2603); assay type: functional
Streptokinase A = biological target: T1, Streptokinase A (Streptococcus pyogenes serotype M1, UniProt P10520); test: viability-normalized secreted streptokinase activity reduction – plasminogen activation absorbance, OD405, dose response (AID 1914); assay type: functional, Streptococcus pyogenes M1 GAS;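 note: secreted streptokinase activity via plasminogen activation per viability signal from cell pellet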
T1 sequence (P10520 whole entry): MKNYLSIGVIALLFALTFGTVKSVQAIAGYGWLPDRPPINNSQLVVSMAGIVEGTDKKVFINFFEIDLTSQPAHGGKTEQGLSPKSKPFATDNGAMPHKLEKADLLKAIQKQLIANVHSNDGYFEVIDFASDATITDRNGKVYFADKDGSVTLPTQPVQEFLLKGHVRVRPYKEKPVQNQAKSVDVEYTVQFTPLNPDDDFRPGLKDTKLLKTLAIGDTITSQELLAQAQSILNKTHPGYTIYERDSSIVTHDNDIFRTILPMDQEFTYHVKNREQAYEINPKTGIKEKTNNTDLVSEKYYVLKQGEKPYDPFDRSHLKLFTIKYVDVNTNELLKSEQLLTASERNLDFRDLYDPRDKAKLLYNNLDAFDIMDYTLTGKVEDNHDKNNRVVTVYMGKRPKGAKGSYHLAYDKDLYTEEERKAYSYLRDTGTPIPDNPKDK

[2] = biological target: T2, Heat shock factor protein 1 (Mus musculus, UniProt P38532); test: enhancement of HSF1-driven luciferase signal – cell-based, NIH3T3, luminescence, dose retest, confirmation (AID 435004); assay type: functional;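 note: stress induced by proteasome inhibitor MG132 added 30 min after compound; luciferase reporter driven by HSF1 response element in NIH3T3 cells; actives raise luminescence as potentiators of the MG132 stress response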
T2 sequence (P38532 whole entry): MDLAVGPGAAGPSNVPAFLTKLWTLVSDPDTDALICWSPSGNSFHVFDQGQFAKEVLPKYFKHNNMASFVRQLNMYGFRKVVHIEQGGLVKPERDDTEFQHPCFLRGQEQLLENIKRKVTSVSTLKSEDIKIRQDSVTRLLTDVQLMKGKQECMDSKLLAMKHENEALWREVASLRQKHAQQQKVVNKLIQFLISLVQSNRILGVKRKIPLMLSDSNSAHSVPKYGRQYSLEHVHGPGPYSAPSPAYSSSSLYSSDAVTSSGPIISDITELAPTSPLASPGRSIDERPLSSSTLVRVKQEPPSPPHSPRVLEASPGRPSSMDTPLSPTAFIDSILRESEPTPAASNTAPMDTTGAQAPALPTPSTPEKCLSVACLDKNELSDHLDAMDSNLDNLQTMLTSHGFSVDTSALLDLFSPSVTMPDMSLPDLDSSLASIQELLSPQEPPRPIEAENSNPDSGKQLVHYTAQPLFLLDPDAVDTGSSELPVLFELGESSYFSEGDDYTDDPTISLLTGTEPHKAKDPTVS

[3] = biological target: Peroxisome proliferator-activated receptor gamma/Nuclear receptor corepressor 2 (Homo sapiens, UniProt P37231+Q9Y618); assay type: functional
[4] = biological target: Photoreceptor-specific nuclear receptor (Homo sapiens, UniProt Q9Y5X4); assay type: functional;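 note: potency for compounds that break the NR2E3 corepressor complex and count as activators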
Hexokinase HKDC1 = biological target: T3, Hexokinase HKDC1 (Homo sapiens, UniProt Q2TB90); test: inhibition of HKDC1 glucose phosphorylation – biochemical, W721R variant, dose response (AID 504729); assay type: functional
T3 sequence (Q2TB90 whole entry): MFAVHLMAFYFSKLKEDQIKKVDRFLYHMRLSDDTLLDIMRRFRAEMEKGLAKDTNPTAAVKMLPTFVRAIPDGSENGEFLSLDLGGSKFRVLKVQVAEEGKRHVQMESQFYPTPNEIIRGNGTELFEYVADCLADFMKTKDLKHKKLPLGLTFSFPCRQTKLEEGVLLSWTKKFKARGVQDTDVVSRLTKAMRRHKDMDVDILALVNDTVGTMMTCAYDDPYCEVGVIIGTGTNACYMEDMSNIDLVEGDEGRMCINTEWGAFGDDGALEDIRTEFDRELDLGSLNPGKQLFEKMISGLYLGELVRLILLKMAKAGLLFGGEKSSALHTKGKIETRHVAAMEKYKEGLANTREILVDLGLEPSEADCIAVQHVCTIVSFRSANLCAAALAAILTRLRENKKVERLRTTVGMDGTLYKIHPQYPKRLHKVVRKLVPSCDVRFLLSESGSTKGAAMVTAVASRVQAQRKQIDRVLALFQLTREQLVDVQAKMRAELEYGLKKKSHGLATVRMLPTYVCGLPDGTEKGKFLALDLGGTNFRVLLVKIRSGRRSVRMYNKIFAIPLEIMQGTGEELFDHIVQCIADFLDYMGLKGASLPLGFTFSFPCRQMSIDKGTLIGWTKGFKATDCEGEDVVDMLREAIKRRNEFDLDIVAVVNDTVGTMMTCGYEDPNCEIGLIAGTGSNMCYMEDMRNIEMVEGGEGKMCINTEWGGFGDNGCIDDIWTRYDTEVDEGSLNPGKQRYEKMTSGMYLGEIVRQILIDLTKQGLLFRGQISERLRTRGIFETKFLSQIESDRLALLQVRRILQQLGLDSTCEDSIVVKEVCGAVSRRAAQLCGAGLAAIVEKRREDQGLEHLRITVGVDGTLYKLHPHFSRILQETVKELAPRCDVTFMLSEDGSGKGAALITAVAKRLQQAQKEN

[5] = alpha-synuclein stem-loop luciferase translation blockers – H4 neuroglioma cells, luminescence, confirmation (AID 1988); assay type: functional, cell-based
[6] = Luminescence Cell-Based Dose Response HTS to Identify Inhibitors of 5'UTR Stem-Loop Driven Prion Protein mRNA Translation in H4 Neuroglioblastoma Cells. [Related pubchem assays: 1827 (Project Summary), 1813 (Primary HTS)]; assay type: functional
[7] = luciferase reporter signal suppression in cells – H4 neuroglioma cells, luminescence, dose response (AID 1990); assay type: functional, cell-based
[8] = biological target: Peroxisome proliferator-activated receptor gamma/Nuclear receptor coactivator 3 (Homo sapiens, UniProt P37231); test: TR-FRET dose response biochemical High Throughput Screening assay for agonists of the steroid receptor coactivator 3 (SRC-3) recruitment by the peroxisome proliferator-activated receptor gamma (PPAR gamma): non-selective agonists. [Related pubchem assays: 1301 (Confirmation screen.), 1048 (Primary screen.)]; assay type: functional
[9] = biological target: Peroxisome proliferator-activated receptor gamma/Nuclear receptor coactivator 2 (Homo sapiens, UniProt P37231); test: (§1) TR-FRET dose response biochemical High Throughput Screening assay for agonists of the steroid receptor coactivator 2 (SRC-2) recruitment by the peroxisome proliferator-activated receptor gamma (PPAR gamma): non-selective agonists. [Related pubchem assays: 1297, 1032 ]; assay type: functional
[10] = biological target: Peroxisome proliferator-activated receptor gamma/Nuclear receptor coactivator 1 (Homo sapiens, UniProt P37231); test: as §1, with “1 (SRC-1)” for “2 (SRC-2)”, “assays (depositor defined):AID1300, AID1808, AID504735, AID631]” for “assays: 1297, 1032 ]”; assay type: protein assay
[11] = biological target: T4, Alkaline phosphatase, tissue-nonspecific isozyme (Homo sapiens, UniProt P05186)
T4 sequence (P05186 whole entry): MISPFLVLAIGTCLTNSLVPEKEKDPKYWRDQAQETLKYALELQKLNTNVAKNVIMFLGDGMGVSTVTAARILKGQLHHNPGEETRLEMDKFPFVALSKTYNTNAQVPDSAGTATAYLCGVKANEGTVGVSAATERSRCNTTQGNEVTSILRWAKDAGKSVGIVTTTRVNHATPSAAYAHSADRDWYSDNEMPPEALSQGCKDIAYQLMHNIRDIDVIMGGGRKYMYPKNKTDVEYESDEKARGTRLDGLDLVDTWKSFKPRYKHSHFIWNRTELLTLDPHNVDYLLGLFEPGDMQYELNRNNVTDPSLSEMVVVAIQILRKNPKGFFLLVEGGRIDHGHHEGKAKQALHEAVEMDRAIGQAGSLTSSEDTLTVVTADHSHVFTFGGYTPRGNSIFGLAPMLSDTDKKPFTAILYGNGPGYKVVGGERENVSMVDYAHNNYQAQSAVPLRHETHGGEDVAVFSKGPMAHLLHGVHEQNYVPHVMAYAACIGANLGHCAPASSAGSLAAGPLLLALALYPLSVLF

[12] = biological target: T5, Zinc finger protein mex-5 (Caenorhabditis elegans, UniProt Q9XUB2); test: potency of MEX-5 RNA-binding blockers – biochemical, C. elegans, fluorescence polarization, dose response (AID 1960)
T5 sequence (Q9XUB2 whole entry): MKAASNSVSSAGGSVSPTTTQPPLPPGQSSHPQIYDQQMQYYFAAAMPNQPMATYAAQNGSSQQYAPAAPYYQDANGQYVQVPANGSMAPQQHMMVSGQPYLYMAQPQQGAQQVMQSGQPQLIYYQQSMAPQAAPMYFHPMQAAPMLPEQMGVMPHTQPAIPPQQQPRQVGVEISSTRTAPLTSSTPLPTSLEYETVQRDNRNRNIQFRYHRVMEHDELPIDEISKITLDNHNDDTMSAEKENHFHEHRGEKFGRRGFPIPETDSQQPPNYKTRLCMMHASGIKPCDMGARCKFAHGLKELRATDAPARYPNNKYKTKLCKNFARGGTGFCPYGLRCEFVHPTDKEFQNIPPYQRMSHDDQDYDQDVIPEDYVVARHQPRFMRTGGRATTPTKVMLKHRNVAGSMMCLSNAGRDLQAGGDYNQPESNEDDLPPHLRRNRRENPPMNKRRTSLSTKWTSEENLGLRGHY

Protein skinhead-1 = biological target: T6, Protein skinhead-1 (Caenorhabditis elegans, UniProt P34707); assay type: functional
T6 sequence (P34707 whole entry): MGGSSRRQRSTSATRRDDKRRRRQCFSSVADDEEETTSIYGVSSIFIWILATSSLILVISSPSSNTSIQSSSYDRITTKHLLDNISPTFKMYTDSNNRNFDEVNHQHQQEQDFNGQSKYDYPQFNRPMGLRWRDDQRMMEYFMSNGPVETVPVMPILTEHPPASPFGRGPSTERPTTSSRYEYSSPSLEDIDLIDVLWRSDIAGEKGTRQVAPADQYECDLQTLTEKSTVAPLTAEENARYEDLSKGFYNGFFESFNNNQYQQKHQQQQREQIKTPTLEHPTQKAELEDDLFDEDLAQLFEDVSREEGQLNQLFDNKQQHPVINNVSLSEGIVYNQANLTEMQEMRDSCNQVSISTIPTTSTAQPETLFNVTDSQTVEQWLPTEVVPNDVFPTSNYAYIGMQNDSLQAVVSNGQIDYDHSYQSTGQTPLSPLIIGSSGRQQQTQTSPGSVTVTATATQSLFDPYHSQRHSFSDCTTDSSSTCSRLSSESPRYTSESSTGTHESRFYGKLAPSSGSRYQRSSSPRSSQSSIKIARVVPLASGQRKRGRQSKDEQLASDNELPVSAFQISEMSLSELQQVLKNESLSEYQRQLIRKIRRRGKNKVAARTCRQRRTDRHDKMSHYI

[13] = biological target: Female germline-specific tumor suppressor gld-1 (Caenorhabditis elegans, UniProt Q17339); test: blockers of GLD-1/TGE RNA complex formation – biochemical, fluorescence polarization, C. elegans, dose response (AID 2802);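 note: fluorescence polarization of labeled TGE RNA bound by purified gld-1 protein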
[14] = biological target: T7, Polyadenylate-binding protein 1 (Homo sapiens, UniProt P11940); test: MLLE domain peptide-binding blockers, IC50 – biochemical, fluorescence polarization, FITC-PAM2 peptide, dose response (AID 602259); assay type: functional; conditions: read-out: IC50_Mean
14-3-3 protein gamma = 14-3-3 protein gamma (Homo sapiens, UniProt P61981); test: modulators of 14-3-3 gamma client binding – dose response (AID 711); assay type: functional
Protein Rev = Protein Rev (Human immunodeficiency virus type 1 group M subtype B (isolate HXB2)(HIV-1), UniProt P04618); test: blockers of HIV Rev/RRE RNA complex – biochemical, fluorescence polarization, HIV-1, dose response (AID 434976); set-up: species or system Human immunodeficiency virus 1
[15] = biological target: T8, RNA-binding protein pos-1 (Caenorhabditis elegans, UniProt G5EF15); test: disruptors of C. elegans POS-1 RNA interaction – biochemical, fluorescence polarization, dose response (AID 1964);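 note: purified POS-1 fused to maltose binding protein made in E. coli; potency of compounds blocking POS-1 binding to fluorescent RNA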
T8 sequence (G5EF15 whole entry): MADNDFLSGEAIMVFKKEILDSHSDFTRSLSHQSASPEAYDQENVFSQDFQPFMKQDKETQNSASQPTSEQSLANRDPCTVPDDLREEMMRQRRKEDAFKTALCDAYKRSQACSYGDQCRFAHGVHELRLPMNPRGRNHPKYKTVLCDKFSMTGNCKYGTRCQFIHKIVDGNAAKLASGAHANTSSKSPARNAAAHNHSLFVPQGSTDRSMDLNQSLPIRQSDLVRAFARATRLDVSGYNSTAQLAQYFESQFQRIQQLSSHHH

[16] = biological target: T7, Polyadenylate-binding protein 1; test: MLLE binding blockers, Cy5 peptide tracer – biochemical, fluorescence polarization, Cy5-PAM2 peptide, secondary, miRNA deadenylation inhibitor project, dose response (AID 602260); assay type: functional; conditions: read-out: IC50_Mean

Potassium voltage-gated channel subfamily KQT member 2, sequence (O88943 whole entry W236L): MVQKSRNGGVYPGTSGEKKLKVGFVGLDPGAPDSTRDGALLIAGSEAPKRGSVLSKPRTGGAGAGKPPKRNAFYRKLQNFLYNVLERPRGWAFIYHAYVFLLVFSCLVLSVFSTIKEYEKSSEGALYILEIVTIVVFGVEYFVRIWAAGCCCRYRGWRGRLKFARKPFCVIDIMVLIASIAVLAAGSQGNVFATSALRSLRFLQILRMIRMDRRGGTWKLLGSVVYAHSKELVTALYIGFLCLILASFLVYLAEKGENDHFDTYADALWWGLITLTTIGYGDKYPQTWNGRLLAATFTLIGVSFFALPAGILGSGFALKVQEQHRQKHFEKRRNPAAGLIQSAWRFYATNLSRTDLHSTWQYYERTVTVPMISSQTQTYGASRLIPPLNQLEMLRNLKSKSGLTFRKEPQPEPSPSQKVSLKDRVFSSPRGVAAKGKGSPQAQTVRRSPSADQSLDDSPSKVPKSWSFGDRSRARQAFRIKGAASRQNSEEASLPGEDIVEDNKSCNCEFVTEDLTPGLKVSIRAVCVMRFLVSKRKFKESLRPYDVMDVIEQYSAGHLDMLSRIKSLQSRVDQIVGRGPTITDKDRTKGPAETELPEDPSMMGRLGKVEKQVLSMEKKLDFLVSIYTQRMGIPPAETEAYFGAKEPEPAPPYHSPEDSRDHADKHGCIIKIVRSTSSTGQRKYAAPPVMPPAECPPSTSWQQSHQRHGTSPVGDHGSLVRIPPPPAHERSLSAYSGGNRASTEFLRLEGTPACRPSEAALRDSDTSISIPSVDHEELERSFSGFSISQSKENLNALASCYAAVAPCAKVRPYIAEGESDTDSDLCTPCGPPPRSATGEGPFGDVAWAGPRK
T7 sequence (P11940 whole entry, the tested form may be a part): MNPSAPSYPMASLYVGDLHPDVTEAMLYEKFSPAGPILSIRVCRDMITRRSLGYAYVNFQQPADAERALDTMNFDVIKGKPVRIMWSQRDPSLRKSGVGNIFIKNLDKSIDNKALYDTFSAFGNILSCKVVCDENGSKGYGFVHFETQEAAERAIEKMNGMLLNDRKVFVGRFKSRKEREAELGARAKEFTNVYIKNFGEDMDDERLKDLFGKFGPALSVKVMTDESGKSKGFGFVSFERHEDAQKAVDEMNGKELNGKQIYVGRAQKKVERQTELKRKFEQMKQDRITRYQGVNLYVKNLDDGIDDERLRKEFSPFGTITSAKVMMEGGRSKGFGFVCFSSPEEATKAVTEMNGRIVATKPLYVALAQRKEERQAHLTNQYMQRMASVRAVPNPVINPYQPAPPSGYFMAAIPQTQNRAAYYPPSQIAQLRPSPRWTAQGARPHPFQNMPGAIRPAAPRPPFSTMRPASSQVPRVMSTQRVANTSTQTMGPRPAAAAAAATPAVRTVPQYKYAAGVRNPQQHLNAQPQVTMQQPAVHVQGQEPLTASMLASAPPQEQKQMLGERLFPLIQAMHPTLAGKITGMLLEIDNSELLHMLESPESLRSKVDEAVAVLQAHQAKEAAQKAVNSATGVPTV
Photoreceptor-specific nuclear receptor, sequence (Q9Y5X4 whole entry): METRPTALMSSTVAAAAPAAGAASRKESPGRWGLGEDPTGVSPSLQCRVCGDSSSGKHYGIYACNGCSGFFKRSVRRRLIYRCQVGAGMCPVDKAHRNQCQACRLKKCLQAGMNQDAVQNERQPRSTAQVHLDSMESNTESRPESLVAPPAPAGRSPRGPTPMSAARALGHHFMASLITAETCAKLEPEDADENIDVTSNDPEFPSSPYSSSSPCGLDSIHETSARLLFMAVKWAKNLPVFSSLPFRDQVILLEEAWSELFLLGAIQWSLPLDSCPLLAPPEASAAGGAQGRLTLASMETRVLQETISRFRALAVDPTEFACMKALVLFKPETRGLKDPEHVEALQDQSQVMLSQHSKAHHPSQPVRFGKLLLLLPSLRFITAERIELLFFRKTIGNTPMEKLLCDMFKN
Peroxisome proliferator-activated receptor gamma/Nuclear receptor corepressor 2, sequence (P37231 whole entry): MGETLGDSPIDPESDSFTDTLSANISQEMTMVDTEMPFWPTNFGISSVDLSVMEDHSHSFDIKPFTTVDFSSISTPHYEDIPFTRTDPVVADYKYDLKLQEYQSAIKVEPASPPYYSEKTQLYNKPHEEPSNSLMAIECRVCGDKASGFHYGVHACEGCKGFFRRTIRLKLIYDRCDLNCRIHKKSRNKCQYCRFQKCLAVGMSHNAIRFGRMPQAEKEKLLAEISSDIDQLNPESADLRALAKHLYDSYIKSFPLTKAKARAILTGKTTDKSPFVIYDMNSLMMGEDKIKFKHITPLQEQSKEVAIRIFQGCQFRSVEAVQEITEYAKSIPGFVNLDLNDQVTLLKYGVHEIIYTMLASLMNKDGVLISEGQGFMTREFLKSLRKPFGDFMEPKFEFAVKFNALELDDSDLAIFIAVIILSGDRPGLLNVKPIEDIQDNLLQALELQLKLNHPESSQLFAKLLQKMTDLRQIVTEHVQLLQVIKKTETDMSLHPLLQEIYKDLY
Peroxisome proliferator-activated receptor gamma/Nuclear receptor corepressor 2, sequence (Q9Y618 whole entry): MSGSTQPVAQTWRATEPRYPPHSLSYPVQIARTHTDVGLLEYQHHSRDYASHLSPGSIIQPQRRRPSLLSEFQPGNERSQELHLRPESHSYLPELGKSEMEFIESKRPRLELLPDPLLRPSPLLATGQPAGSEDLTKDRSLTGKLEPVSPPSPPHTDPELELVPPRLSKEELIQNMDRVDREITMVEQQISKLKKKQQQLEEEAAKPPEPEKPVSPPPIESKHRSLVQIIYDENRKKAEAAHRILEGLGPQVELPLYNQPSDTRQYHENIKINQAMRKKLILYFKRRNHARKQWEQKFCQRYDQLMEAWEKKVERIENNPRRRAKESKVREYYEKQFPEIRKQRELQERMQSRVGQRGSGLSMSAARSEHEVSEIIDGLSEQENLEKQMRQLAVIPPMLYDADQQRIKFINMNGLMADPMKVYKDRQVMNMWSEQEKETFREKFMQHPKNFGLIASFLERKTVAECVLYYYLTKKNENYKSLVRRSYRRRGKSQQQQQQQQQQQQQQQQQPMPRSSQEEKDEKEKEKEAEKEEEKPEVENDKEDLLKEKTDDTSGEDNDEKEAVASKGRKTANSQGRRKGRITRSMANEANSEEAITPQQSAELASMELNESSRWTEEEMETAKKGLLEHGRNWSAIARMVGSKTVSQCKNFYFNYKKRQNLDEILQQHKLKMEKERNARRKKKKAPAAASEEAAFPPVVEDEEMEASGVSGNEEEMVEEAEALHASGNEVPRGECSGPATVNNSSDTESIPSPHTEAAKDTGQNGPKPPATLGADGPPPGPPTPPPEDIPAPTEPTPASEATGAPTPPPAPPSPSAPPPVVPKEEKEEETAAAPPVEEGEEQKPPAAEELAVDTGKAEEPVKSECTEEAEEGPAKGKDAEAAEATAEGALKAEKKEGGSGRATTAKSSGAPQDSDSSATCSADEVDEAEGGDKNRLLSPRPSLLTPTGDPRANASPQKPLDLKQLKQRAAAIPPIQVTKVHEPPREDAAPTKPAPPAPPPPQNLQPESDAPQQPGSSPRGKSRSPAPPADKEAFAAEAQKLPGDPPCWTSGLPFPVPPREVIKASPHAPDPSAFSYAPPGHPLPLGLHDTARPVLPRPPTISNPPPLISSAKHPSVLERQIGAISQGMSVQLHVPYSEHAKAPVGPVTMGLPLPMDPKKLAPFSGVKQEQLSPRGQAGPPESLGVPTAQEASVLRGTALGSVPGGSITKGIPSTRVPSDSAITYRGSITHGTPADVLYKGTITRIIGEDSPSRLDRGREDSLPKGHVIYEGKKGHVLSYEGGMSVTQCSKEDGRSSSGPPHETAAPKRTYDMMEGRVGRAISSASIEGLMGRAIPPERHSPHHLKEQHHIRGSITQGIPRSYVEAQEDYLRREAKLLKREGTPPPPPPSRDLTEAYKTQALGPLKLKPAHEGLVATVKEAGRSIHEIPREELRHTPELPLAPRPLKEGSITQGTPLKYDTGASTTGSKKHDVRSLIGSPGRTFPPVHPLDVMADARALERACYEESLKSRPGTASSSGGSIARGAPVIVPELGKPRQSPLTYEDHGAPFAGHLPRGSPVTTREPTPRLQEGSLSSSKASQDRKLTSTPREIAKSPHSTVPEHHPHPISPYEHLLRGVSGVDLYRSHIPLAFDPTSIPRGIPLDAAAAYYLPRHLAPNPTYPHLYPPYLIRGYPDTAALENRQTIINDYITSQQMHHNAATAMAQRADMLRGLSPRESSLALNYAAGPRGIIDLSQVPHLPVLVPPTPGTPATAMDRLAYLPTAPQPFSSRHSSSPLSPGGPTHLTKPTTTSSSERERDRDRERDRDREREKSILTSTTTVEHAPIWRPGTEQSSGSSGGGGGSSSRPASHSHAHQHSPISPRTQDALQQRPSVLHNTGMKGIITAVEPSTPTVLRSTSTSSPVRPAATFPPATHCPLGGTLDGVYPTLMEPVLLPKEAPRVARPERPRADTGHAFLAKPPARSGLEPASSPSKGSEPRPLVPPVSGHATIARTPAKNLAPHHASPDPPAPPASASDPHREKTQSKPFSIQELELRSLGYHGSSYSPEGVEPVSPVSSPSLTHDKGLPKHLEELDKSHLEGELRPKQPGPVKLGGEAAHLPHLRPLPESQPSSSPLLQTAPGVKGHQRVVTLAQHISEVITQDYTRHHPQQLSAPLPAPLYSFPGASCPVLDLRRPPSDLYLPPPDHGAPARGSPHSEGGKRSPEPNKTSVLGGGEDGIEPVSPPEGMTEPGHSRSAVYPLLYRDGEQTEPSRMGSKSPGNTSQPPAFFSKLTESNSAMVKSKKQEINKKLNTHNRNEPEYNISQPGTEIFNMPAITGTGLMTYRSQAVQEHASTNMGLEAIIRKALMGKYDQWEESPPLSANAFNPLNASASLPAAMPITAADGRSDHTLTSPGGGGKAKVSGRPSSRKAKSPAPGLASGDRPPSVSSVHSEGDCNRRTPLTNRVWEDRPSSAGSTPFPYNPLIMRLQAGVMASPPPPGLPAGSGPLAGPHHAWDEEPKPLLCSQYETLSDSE
Protein Rev, sequence (P04618 whole entry, the tested form may be a part): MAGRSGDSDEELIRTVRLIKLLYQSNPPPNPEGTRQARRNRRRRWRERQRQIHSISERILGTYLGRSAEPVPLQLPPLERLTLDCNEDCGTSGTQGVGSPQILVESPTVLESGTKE

With `C#CCn1/c(=N/C(=O)CSC(C)=O)sc2cc(F)ccc21` the EC50 [1] was 2.97 µM (active).

In the case of `S=c1[nH]c(SCc2ccccc2)nc2ccccc12`, the EC50 (Streptokinase A) is reported as > 150 µM (not active), the EC50 [2] is reported as 227 µM (active) and the IC50 [3] is reported as 2.48 µM (active). The IC50 [4] was > 39.8 µM (not active).

For `O=C(CSc1n[nH]c(-c2cccnc2)n1)Nc1ccc([N+](=O)[O-])cc1Br`, the IC50 (Hexokinase HKDC1) was 5.92 µM (active).

With `O=C(NCCc1ccccc1)c1cnn2c(C(F)F)cc(C3CC3)nc12` the EC50 [5] was > 120 µM (not active), the EC50 [6] was > 120 µM (not active) and the EC50 [7] was > 120 µM (not active). The IC50 (Hexokinase HKDC1) was 5.5 µM (active).

In the case of `O=C(CSc1ncnc2c1oc1ccccc12)c1cccs1`, the EC50 [8] is reported as > 79.4 µM (not active), the EC50 [9] is reported as > 8.82 µM (not active) and the IC50 [3] is reported as 15.3 µM (not active). The EC50 [10] was > 26.5 µM (inactive) and the IC50 [4] was > 39.8 µM (not active).

With `Oc1c(Cl)cc(Cl)cc1/C=N/c1nccs1` the EC50 [1] was 11.6 µM (active).

With `COc1ccc(NC(=O)CSc2nc3ccccc3c3nc4ccccc4n23)cc1` the EC50 [11] was > 100 µM (not active).

With `COc1ccc(-c2nc(C[S+]([O-])CC(=O)NCc3ccccn3)c(C)o2)cc1` (stereo not given) the EC50 [12] was 30.5 µM (active), the IC50 (Protein skinhead-1) was > 100 µM (inactive) and the IC50 [13] was 5 µM (active). For the same compound, the IC50 [14] was 29.4 µM (inactive), the IC50 (14-3-3 protein gamma) was 10.7 µM (active) and the IC50 (Protein Rev) was 19.4 µM (not active). For the same compound, the EC50 [15] was 55.4 µM (active) and the IC50 [16] was > 66 µM (inactive).
